Assay results taken from patent US4173636A, “Decahydroquinolines, pharmaceutical compositions and methods of use” (Labaz, priority 1975, dated 1979).
Where two headings read alike, the source gives them in different places.

How the values were obtained:
contorsions [1] = test: KOSTER acetic acid contorsion test, intragastric; assay type: in vivo, mice; conditions: Mus musculus, po
Experimental: The first test was carried out according to the technique of KOSTER (Fed. Proc. 18, 412, 1959) on batches of 20 mice which had been deprived of food for 18 hours.
Each batch of animals with the exception of the controls was given an intragastric dose of the compound to be studied so that each batch received a higher dose than the preceding batch. Thirty minutes after administration, the animals of each batch, as well as the control animals, were given intraperitoneally 0.2 ml. of a 0.25% acetic acid solution per 10 g. of body-weight.
During the 20 minutes following the injection of acetic acid, the number of characteristic contorsions made by the animals was noted. The absence of contorsions corresponds to animals under the influence of analgesia.
Note was taken of the AD50, i.e. the dose of the compound under study which provoked analgesia in half of the animals treated.

pain-threshold voltage = test: CHARLIER electric stimulation pain-threshold test, intragastric; assay type: in vivo, rats; conditions: Rattus norvegicus, po
Experimental: The fourth test was carried out according to the technique of CHARLIER and al (Arch. int. Pharmacodyn. 134, 306, 1961) on batches of 10 rats.
The animals were connected to a source of electric current by means of two electrodes of which one was attached to the tail and the other maintained in the rectum.
The pain-threshold voltage was then determined for each rat by passing a current of 2 volts and increasing the current by one volt at a time until the animal gave a squeak. This control test was repeated three times at intervals of 15 minutes. The compound under study was then administered by intragastric route and, starting from the threshold-voltage already determined note was taken, every 10 minutes for 2 hours, of the voltage which caused the animals to squeak.
The results were noted according to the WINTER and FLATAKER scale (J. Pharmacol. Exp. Therap. 98, 305, 1950) and the AD's 50 obtained are listed in the Table given hereunder: […]

[2] = system: squeak at threshold-voltage (pain); test: NILSEN electric tail stimulation test, intragastric; assay type: in vivo, mice; conditions: Mus musculus, po
Experimental: The second test was carried out according to the technique of NILSEN (Acta Pharmacol. et toxicol. 18, 10, 1961) on batches of 10 mice.
The animals were connected to a source of electric current by means of two electrodes inserted into the tail.
The threshold-voltage was then determined, i.e. the minimum voltage which, in the course of two successive shocks, caused the animals to squeak at least one time out of two. After this, the compound to be studied was administered by intragastric route.
Note was taken of the dose of compound (AD50) which suppressed the squeak in half of the treated animals.

contorsions [3] = test: SIEGMUND phenylbenzoquinone contorsion test; assay type: in vivo, male mice; conditions: Mus musculus
Experimental: The third test was carried out according to the technique of SIEGMUND and al (Proc. Soc. Exp. Biol. Med. 95, 729, 1957) on batches of 10 male mice.
A typical syndrome was produced in the animals by intraperitoneal injection of 0.25 ml. of a 0.02% aqueous solution of 2-phenyl-1,4-benzoquinone (phenylbenzoquinone).
The syndrome in question is characterized by intermittent contractions of the abdomen, twisting and turning of the trunk and extension of the hind legs. Note was taken of the number of movements occurring over a period of 30 minutes starting 15 minutes after the injection of phenylbenzoquinone.
The compound to be tested was injected 30 minutes before the phenylbenzoquinone in such a way that each batch received a higher dose than the preceding batch, a control batch receiving only the phenylbenzoquinone.
Note was taken of the AD50, i.e. the dose of substance which reduced at least by half the number of contorsions in half of the animals, as compared to the number of contorsions observed in the control group.

contorsions [4] = test: animal or person; assay type: in vivo, mice; conditions: Mus musculus, sc, read-out: AD50
[5] = system: reaction time (flick-tail); test: animal or person; assay type: in vivo, male rats; conditions: Rattus norvegicus, sc, read-out: AD50
[6] = system: squeak at threshold-voltage (pain); test: animal or person; assay type: in vivo, mice; conditions: Mus musculus, sc, read-out: AD50

Row | SMILES | ED50 (contorsions [1]; read-out: AD50) | ED50 (pain-threshold voltage; 2 h, read-out: AD50) | ED50 ([2]; read-out: AD50) | ED50 (contorsions [3]; read-out: AD50) | ED50 (contorsions [4]) | ED50 [5] | ED50 [6] | further results
1 | CC(=O)Oc1ccccc1C(=O)O [Acetylsalicyclic acid, Acetylsalicylic acid] | 150 mg/kg | 1300 mg/kg | 1100 mg/kg | 50 mg/kg |  |  |  | 
2 | Cc1cc(=O)n(-c2ccccc2)n1C [Antipyrine] |  |  |  |  |  |  |  | ED50 (contorsions [1]; intragastric, mice, 30 min before 0.25% acetic acid i.p., analgesia in half of the animals, read-out: AD50 (the source's name)): 120 mg/kg; ED50 (pain-threshold voltage; intragastric, rats, WINTER and FLATAKER scale, 2 hours, read-out: AD50 (the source's name)): 500 mg/kg; ED50 ([2]; intragastric, mice, suppressed the squeak in half of the treated animals, read-out: AD50 (the source's name)): 400 mg/kg; ED50 (contorsions [3]; injected 30 minutes before phenylbenzoquinone, male mice, contorsions reduced at least by half in half of the animals, read-out: AD50 (the source's name)): 100 mg/kg
3 | O=C(OCC(O)CO)c1ccccc1Nc1ccnc2cc(Cl)ccc12 (stereo not shown) [Glafenine] | 110 mg/kg |  |  | 325 mg/kg |  |  |  | 
4 | CC(C)=CCN1CCC2(C)c3cc(O)ccc3CC1C2C (stereo not shown) [Pentazocine] | 45 mg/kg |  |  |  | 5 mg/kg | 3 mg/kg | 12 mg/kg | 
5 | CCOC(=O)C1(c2ccccc2)CCN(C)CC1 [Pethidine] |  | 50 mg/kg |  |  | 7 mg/kg | 5.5 mg/kg | 7 mg/kg | 
6 | CCOc1ccc(NC(C)=O)cc1 [Phenacetine] | 160 mg/kg | 750 mg/kg | 450 mg/kg | 80 mg/kg |  |  |  | 
